The results in this text go back to US10988481B2, “Potent and selective mu opioid receptor modulators” (VIRGINIA COMMONWEALTH UNIVERSITY, priority 2016, dated 2021).

One series addresses KOR (Homo sapiens (Human), UniProt P41145). Nature of the series: Competition binding assay at KOR ([3H]DPN, CHO cell membranes). How it is done: (§1) Chinese hamster ovary (CHO) cells expressing MOR, KOR and DOR were cultured for use in this assay. The culture media used for MOR CHO cells contained 500 mL DMEM/F12 media, 10% FBS, 1% penicillin/streptomycin, and 2.75 mL G418. The DOR and KOR CHO cells were cultured in the same media except that 5% FBS was used instead of 10%. The cells are allowed to grow until they are 80-95% confluent after which they are split. The cells are continuously cultured and split until there were sufficient cells for the studies.
(§2) Once the cells reached confluence, cells were harvested, centrifuged at 1000×g for 10 minutes, and suspended in membrane buffer (50 mM Tris, 3 mM MgCl2, and 1 mM EGTA, pH 7.4). The cells were then homogenized, centrifuged at 50000×g for 10 minutes, and re-homogenized in membrane buffer. A Bradford assay was conducted to determine membrane protein concentrations, and membrane protein preps (3 μg/aliquot) were stored at −80° C.
(§3) The competition binding assay was conducted to determine the affinity and selectivity of the synthesized compounds to MOR over KOR and DOR. The Kd and Bmax values for [^3H]NLX at MOR and [^3H]DPN at KOR had been determined previously. […] [^3H]NLX was used to label MOR whilst [^3H]DPN was used to label both DOR and KOR. The potency of the new compounds in displacing the specific binding of the radioligand was determined by linear regression analysis of Hill plots. […] The IC50 values were determined and converted to Ki values using the Cheng—Prusoff equation (Rosenblum, A. et al. Exp Clin Psychopharmacol. 2008, 16 (5), 405-416).

In the next series the target is DOR (Homo sapiens (Human), UniProt P41143). Briefly: Competition binding assay at DOR ([3H]DPN, CHO cell membranes). As for the experimental part: as §1, §2, §3
For another series, the target named is MOR (Mus musculus, UniProt P42866). The class given is biochemical. The following applies: relative to 3 μM DAMGO at MOR. How it is done: The [^35S]GTPγS functional assay was used to determine whether the synthesized compounds are agonists. The agonist's activity of the compounds was measured relative to 3 μM DAMGO at MOR. In this assay, upon receptor activation due to agonist binding, [^35S]GTPγS binds to the Gα subunit. Thus, [^35S]GTPγS replaces endogenous GTP and since the γ-thiophosphate bond is resistant to hydrolysis by GTPase, [^35S]GTPγS labelled Gα subunits accumulate and can be quantified by measuring the amount of incorporated [^35S].
The Bradford assay was then conducted to determine the concentration of the membrane protein using BSA as the standard. Suitable dilutions of membrane protein, [^35S]GTPγS), cold GTPγS, DAMGO and GDP were made in TME. The desired amount of the protein per tube was 10 μg. All the test-tubes were vortexed and incubated in the shaking water bath at 30° C. for 90 minutes, after which bound radioligand was filtered and rinsed three times with cold Tris buffer. The filtered bound radioligand was then transferred into scintillation tubes with 4 mL of scintillation fluid and radioligand was quantified. However, counting was delayed for 9 hrs to allow the radioactivity to enter the solution. Percent DAMGO stimulation was defined as (net stimulated binding of test compound/net stimulated binding of DAMGO)×100%. The normalized data were subjected to nonlinear regression analysis to determine EC50 and Emax values using Prism 6.0 software (GraphPad Software, San Diego, Calif.). The assay was performed in triplicate and repeated at least three times.

For another series, the system named is Swiss Webster mice. Nature of the series: Warm-water tail immersion assay, blockage of the antinociceptive effect of morphine. As for the experimental part: FIG. 1A-D. Warm-water tail immersion assay in mice (n=5) at 56±0.1° C. All tested compounds were administered subcutaneously (s.c.). […] Compounds (10 mg/kg) were injected at Time 0. Twenty minutes after injection, tail flick was assessed with hot water. […] Tested compounds (10 mg/kg) were injected at Time 0. Five minutes later, morphine (10 mg/kg) was administered. Twenty minutes after morphine injection, tail flick was tested using hot water.
(§4) For the in vivo studies, male Swiss Webster mice were used for both the warm-water immersion and opioid withdrawal assays. The mice weighed 23-35 g and were housed five to a cage in animal care quarters maintained at 22° C. on a 12 hour light-dark cycle with food and water available ad libitum. The mice were transferred to the test room and the tests were then conducted 18 hours later. Protocols and procedures were approved by the Institutional Animal Care and Use Committee at Virginia Commonwealth University Medical Center and complied with the recommendations of the International Association for the Study of Pain.
Each indole analogue of naltrexamine was tested for its ability to produce antinociception and/or to antagonize the antinociceptive effects of morphine in mice using the warm-water tail immersion assay described by Coderre and Rollman. The a water bath temperature was maintained at 56±0.1° C. The baseline latency (control) was determined before injecting the compounds into the mice. […] To test for agonism, the tail immersion was conducted 20 min (time that morphine effect starts to peak) after injecting the indole analogues of 6α/β-naltrexamine. To prevent tissue damage, a 10 s maximum cut off time was imposed. Antinociceptive response was calculated as the percentage maximum possible effect (% MPE), where % MPE=[(test−control)/(10−control)]×100. In the antagonism study, the 6α/β-naltrexamine derivatives were given 5 min before morphine. The tail immersion test was conducted 20 min after giving morphine. % MPE was calculated for each mouse using at least five mice per drug. AD50 values were calculated using the least-squares linear regression analysis followed by calculation of 95% confidence interval by Bliss method. A higher % MPE indicates a stronger antinociception effect by the ligand.

For the next series, the system named is morphine-pelleted mice. Nature of the series: Opioid withdrawal assay in chronic morphine-exposed (pelleted) mice. As for the experimental part: as §4
A 75 mg morphine pellet was implanted in to the base of the neck of the mice and the mice were then given time to recover in their home cages before the test was conducted. The mice were then allowed for 30 min habituation to an open-topped, square, clear Plexiglas observation chamber (26×26×26 cm^3) with lines partitioning the bottom into quadrants before they were given antagonist. All drugs and test compounds were administered subcutaneously (s.c.). […] Withdrawal commenced within 3 min after antagonist administration. Escape jumps, paw tremors and wet dog shakes were quantified by counting their occurrences over 20 min for each mouse using five mice per drug. The data is given as the mean±SEM. One-way ANOVA followed by the post hoc Dunnett test were performed to assess significance using the Prism 6.0 software.

Where [1] appears, read: [3H]DPN, KOR CHO membranes, read-out: Ki (nM) ± SEM κ.
Where [2] appears, read: [3H]DPN, DOR CHO membranes, read-out: Ki (nM) ± SEM δ.
[3] abbreviates: 1 mg/kg s.c., morphine-pelleted mice, counted over 20 min, mean±SEM.

The Ki is the dissociation constant of the complex between target and ligand, obtained from inhibition or displacement.

Read-outs that look alike come from different tables or passages of the source.

DOR, sequence (P41143 whole entry, looked up): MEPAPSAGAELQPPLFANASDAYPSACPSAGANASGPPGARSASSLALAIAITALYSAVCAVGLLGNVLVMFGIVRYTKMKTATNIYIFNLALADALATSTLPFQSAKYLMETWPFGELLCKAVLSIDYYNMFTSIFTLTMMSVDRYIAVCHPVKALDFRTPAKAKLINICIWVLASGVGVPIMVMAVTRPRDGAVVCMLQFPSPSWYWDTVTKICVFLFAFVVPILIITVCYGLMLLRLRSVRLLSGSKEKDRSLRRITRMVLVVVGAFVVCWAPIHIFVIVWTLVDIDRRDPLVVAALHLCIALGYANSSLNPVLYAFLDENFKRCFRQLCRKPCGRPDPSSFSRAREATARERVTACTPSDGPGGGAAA
MOR, sequence (P42866 whole entry, looked up): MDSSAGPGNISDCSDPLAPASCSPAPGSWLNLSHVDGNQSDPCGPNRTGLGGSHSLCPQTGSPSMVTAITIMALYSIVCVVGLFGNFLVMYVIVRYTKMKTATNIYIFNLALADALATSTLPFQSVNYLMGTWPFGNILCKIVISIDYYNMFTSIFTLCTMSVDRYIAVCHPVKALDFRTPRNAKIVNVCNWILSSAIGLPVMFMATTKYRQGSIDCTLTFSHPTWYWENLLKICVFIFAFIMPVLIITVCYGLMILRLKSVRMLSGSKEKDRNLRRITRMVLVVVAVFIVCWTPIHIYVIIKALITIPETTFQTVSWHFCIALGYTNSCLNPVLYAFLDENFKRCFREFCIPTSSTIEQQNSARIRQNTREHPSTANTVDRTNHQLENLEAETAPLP

On to `O=C(N[C@@H]1CC[C@@]2(O)[C@H]3Cc4ccc(O)c5c4[C@@]2(CCN3CC2CC2)[C@H]1O5)c1c[nH]c2ccccc12` [Compound 11, 17-Cyclopropylmethyl-3,14β-dihydroxy-4,5α-epoxy-6β-(indole-3-carboxamido)morphinan], for which the Ki at KOR turned out to be 0.16 ± 0.005 nM; at DOR, 7.17 ± 1.23 nM.
For `Cl.O=C(CCc1c[nH]c2ccccc12)N[C@H]1CC[C@@]2(O)[C@H]3Cc4ccc(O)c5c4[C@@]2(CCN3CC2CC2)[C@H]1O5` [Compound 8, 17-Cyclopropylmethyl-3,14β-dihydroxy-4,5α-epoxy-6α-[3-(indol-3-yl)propanamido)morphinan], the inhibition constant Ki stood at 1.36 ± 0.178 nM on KOR (setting [1]) and 31.2 ± 8.12 nM at DOR (setting [2]). Besides, the “Emax(% DAMGO) ± SEM” value at MOR is 41.10 ± 6.54 % DAMGO.
Consider `Cl.O=C(N[C@@H]1CC[C@@]2(O)[C@H]3Cc4ccc(O)c5c4[C@@]2(CCN3CC2CC2)[C@H]1O5)c1cccc2[nH]ccc12` [Compound 12, 17-Cyclopropylmethyl-3,14β-dihydroxy-4,5α-epoxy-6β-(indole-4-carboxamido)morphinan], for which the values for the Ki at KOR and at DOR were 1.94 ± 0.299 nM and 45.9 ± 16.3 nM, respectively. For the same compound, on MOR, the “Emax(% DAMGO) ± SEM” value is recorded as 15.21 ± 3.13 % DAMGO.
For `Cl.O=C(Cc1c[nH]c2ccccc12)N[C@H]1CC[C@@]2(O)[C@H]3Cc4ccc(O)c5c4[C@@]2(CCN3CC2CC2)[C@H]1O5` [Compound 7, 17-Cyclopropylmethyl-3,14β-dihydroxy-4,5α-epoxy-6α-[2-(indol-3-yl)acetamido)morphinan], the Ki at KOR (setting [1]) is 3.13 ± 0.449 nM; on DOR (setting [2]) it was 9.17 ± 2.67 nM. The “Emax(% DAMGO) ± SEM” value on MOR came to 33.88 ± 1.43 % DAMGO.
In the case of `Cl.O=C(CCc1c[nH]c2ccccc12)N[C@@H]1CC[C@@]2(O)[C@H]3Cc4ccc(O)c5c4[C@@]2(CCN3CC2CC2)[C@H]1O5` [Compound 17, 17-Cyclopropylmethyl-3,14β-dihydroxy-4,5α-epoxy-60-[3-(indol-3-yl)propanamido)morphinan], the values for the Ki at KOR (setting [1]) and at DOR (setting [2]) were 0.387 ± 0.045 nM and 49 ± 4.72 nM, respectively. Moreover, the “Emax(% DAMGO) ± SEM” value on MOR was 40.43 ± 5.28 % DAMGO. For the same compound, the “Blockage of morphine-mediated antinociception” value with Swiss Webster mice (10 mg/kg s.c. 5 min before morphine 10 mg/kg, tested 20 min after morphine) was “effectively blocked morphine-mediated antinociception”. Also, in the series on Swiss Webster mice (dose-dependent study against morphine, s.c.), the “AD50 (95% CL), opioid antagonist effect” value is reported as 7.30 (3.38-15.74) mg/kg.
For the compound `Cl.O=C(N[C@@H]1CC[C@@]2(O)[C@H]3Cc4ccc(O)c5c4[C@@]2(CCN3CC2CC2)[C@H]1O5)c1ccc2[nH]ccc2c1` [Compound 13, 17-Cyclopropylmethyl-3,14β-dihydroxy-4,5α-epoxy-6β-(indole-5-carboxamido)morphinan], the Ki stood at 0.512 ± 0.038 nM at KOR and 17.7 ± 4.78 nM at DOR. Besides, the “Emax(% DAMGO) ± SEM” value at MOR was found to be 20.15 ± 4.37 % DAMGO.
For `O=C1CC[C@@]2(O)[C@H]3Cc4ccc(O)c5c4[C@@]2(CCN3CC2CC2)[C@H]1O5` [NTX, naltrexone, reference compound], in the series on morphine-pelleted mice (setting [3]), the Escape jumps is 39.0±14.2 times, the Paw tremors was 43.4±15.7 and the Wet-dog shakes amounted to 18.6±1.2 times. Besides, the Diarrhea result with morphine-pelleted mice (1 mg/kg, morphine pelleted mice (not in placebo pelleted mice)) is “produced diarrhea”.
For the compound `Cl.O=C(N[C@H]1CC[C@@]2(O)[C@H]3Cc4ccc(O)c5c4[C@@]2(CCN3CC2CC2)[C@H]1O5)c1ccc2cc[nH]c2c1` [Compound 5, 17-Cyclopropylmethyl-3,14β-dihydroxy-4,5α-epoxy-6α-(indole-6-carboxamido)morphinan], the figures for the inhibitory constant (Ki) on KOR (setting [1]) and at DOR (setting [2]) were 1.63 ± 0.277 nM and 12.8 ± 3.36 nM, respectively. Besides, the “Emax(% DAMGO) ± SEM” value on MOR amounted to 27.0 ± 0.31 % DAMGO.
As to `Cl.O=C(N[C@H]1CC[C@@]2(O)[C@H]3Cc4ccc(O)c5c4[C@@]2(CCN3CC2CC2)[C@H]1O5)c1cc2ccccc2[nH]1` [Compound 1, 17-Cyclopropylmethyl-3,14β-dihydroxy-4,5α-epoxy-6α-(indole-2-carboxamido)morphinan], the inhibitory constant (Ki) came to 0.926 ± 0.125 nM at KOR (setting [1]) and 14.2 ± 2.78 nM at DOR (setting [2]). Also, the “Emax(% DAMGO) ± SEM” value at MOR turned out to be 52.0 ± 13.5 % DAMGO.
Take `Cl.O=C(CCCc1c[nH]c2ccccc12)N[C@H]1CC[C@@]2(O)[C@H]3Cc4ccc(O)c5c4[C@@]2(CCN3CC2CC2)[C@H]1O5` [Compound 9, 17-Cyclopropylmethyl-3,14β-dihydroxy-4,5α-epoxy-6α-[4-(indol-3-yl)butanamido)morphinan]: the results for the Ki at KOR (setting [1]) and on DOR (setting [2]) were 0.149 ± 0.033 nM and 6.73 ± 0.396 nM, respectively. Besides, the “Emax(% DAMGO) ± SEM” value on MOR is 48.36 ± 5.17 % DAMGO.
Take `Cl.O=C(N[C@H]1CC[C@@]2(O)[C@H]3Cc4ccc(O)c5c4[C@@]2(CCN3CC2CC2)[C@H]1O5)c1cccc2[nH]ccc12` [Compound 3, 17-Cyclopropylmethyl-3,14β-dihydroxy-4,5α-epoxy-6α-(indole-4-carboxamido)morphinan]: the Ki worked out at 1.49 ± 0.349 nM on KOR (setting [1]) and 9.26 ± 2.83 nM on DOR (setting [2]). For the same compound, the “Emax(% DAMGO) ± SEM” value at MOR came out at 28.9 ± 1 % DAMGO.
Regarding `Cl.O=C(N[C@H]1CC[C@@]2(O)[C@H]3Cc4ccc(O)c5c4[C@@]2(CCN3CC2CC2)[C@H]1O5)c1c[nH]c2ccccc12` [Compound 2, 17-Cyclopropylmethyl-3,14β-dihydroxy-4,5α-epoxy-6α-(indole-3-carboxamido)morphinan], the results for the Ki at KOR (setting [1]) and at DOR (setting [2]) were 0.984 ± 0.125 nM and 10.5 ± 2.89 nM, respectively. Moreover, on MOR, the “Emax(% DAMGO) ± SEM” value turned out to be 35.4 ± 4.8 % DAMGO.
As to `O=C(N[C@@H]1CC[C@@]2(O)[C@H]3Cc4ccc(O)c5c4[C@@]2(CCN3CC2CC2)[C@H]1O5)c1ccc2cc[nH]c2c1` [Compound 14, 17-Cyclopropylmethyl-3,14β-dihydroxy-4,5α-epoxy-6β-(indole-6-carboxamido)morphinan], the inhibition constant Ki on KOR turned out to be 0.166 ± 0.012 nM; at DOR, 6.23 ± 0.825 nM.
For the compound `Cl.O=C(N[C@H]1CC[C@@]2(O)[C@H]3Cc4ccc(O)c5c4[C@@]2(CCN3CC2CC2)[C@H]1O5)c1ccc2[nH]ccc2c1` [Compound 4, 17-Cyclopropylmethyl-3,14β-dihydroxy-4,5α-epoxy-6α-(indole-5-carboxamido)morphinan], the Ki on KOR (setting [1]) is 3.45 ± 0.994 nM; at DOR (setting [2]), 26.7 ± 7.72 nM. Further, on MOR, the “Emax(% DAMGO) ± SEM” value is 32.2 ± 1.3 % DAMGO.
